Experimental findings from patent US10898481B2 (priority 2018, dated 2021) are described below.

The target of experiment [1] is hADORA1/CHO (hA1 expressing) cells (Homo sapiens (Human), UniProt P30542). The experiment can be described thus: cell-based. The settings on record: FLIPR inhibition, 10 μM adenosine, read-out: cAMP & FLIPR IC50 (nM) hA1.
Experiment [2] deals with hA2a/CHO (Homo sapiens (Human), UniProt P29274). The experiment can be described thus: cAMP inhibition assay in hA2a/CHO cells, 10 μM adenosine.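 Also: compounds added to cells 30 min ahead of adenosine, then a further 30 min at 37 °C with adenosine before cAMP detection.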 It is filed as cell-based. The settings on record: read-out: cAMP & FLIPR IC50 (nM) hA2a.
Chain of hA2a/CHO (P29274 whole entry): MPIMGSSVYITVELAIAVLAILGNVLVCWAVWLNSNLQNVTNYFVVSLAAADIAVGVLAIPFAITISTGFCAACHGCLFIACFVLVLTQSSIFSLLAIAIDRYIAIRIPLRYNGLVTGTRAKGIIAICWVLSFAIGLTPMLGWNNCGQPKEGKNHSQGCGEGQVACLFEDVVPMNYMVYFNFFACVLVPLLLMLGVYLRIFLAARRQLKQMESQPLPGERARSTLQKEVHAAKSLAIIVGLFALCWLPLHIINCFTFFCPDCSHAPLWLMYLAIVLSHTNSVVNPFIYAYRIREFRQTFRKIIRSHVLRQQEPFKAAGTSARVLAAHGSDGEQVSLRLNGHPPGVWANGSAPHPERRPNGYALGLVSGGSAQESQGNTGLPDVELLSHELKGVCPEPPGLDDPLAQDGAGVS
Method: (§1) hA2a/CHO, hA2b/CHO, hA3/CHO and mA2a/CHO (Genscript) were plated at 5×10^3 cells/well into 384-well polystyrene plates at the day of experiment. Compounds were pre-incubated with cells for 30 min at 37° C., 5% CO2. Then 10 μM adenosine was added to the cells and incubated for 30 min at 37° C., 5% CO2. Detection reagent (CISBIO) was added and the plates were incubated for 60 min at room temperature. The signal was captured by Envision.
Experiment [3] has as its target hA2b/CHO (Homo sapiens (Human), UniProt P29275). The experiment can be described thus: cAMP inhibition assay in hA2b/CHO cells, 10 μM adenosine.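 Also: cells exposed to compound 30 min at 37 °C, then stimulated with adenosine a further 30 min, cAMP read after 60 min at room temperature.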 The conditions noted are these: read-out: cAMP & FLIPR IC50 (nM) hA2b. It is filed as cell-based.
Method: as §1
Experiment [4] addresses mA2a/CHO (Mus musculus (Mouse), UniProt Q60613). Description: cAMP inhibition assay in mA2a/CHO cells, 10 μM adenosine.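 Also: compounds preincubated 30 min at 37 °C before the adenosine challenge, then 30 min further stimulation, readout after 60 min detection reagent incubation at room temperature in 384-well plates.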 Format: cell-based. The settings on record: read-out: cAMP & FLIPR IC50 (nM) mA2a.
Method: as §1

Chain of mA2a/CHO (Q60613 whole entry): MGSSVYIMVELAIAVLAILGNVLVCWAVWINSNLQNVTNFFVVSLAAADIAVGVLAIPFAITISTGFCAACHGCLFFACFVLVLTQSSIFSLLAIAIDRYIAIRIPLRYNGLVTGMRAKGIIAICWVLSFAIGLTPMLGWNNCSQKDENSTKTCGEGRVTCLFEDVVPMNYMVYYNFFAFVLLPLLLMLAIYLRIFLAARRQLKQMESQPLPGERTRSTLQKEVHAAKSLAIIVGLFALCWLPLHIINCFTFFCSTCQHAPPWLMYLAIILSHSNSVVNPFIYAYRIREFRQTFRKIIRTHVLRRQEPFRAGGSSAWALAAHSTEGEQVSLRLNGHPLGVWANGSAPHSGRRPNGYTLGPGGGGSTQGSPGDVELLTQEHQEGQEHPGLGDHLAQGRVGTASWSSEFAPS
Chain of hA2b/CHO (P29275 whole entry): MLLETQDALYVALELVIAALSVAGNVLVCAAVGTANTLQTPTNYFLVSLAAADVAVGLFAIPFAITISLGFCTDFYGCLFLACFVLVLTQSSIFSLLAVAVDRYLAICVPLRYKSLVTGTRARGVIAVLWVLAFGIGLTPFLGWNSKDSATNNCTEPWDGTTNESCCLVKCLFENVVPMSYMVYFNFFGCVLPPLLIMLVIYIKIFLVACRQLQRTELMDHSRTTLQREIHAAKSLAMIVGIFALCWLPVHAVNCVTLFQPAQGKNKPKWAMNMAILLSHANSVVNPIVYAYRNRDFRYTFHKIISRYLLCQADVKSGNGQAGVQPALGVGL
Chain of hADORA1/CHO (hA1 expressing) cells (P30542 whole entry): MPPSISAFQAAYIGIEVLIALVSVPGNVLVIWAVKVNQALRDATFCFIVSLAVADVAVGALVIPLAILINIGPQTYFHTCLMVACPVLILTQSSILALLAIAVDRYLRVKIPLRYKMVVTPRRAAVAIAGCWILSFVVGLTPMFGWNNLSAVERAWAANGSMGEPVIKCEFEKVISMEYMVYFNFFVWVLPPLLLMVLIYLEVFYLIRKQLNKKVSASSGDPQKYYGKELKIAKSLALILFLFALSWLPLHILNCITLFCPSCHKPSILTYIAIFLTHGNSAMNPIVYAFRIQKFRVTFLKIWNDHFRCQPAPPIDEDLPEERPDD

In the case of `Cc1cnc2ccc(-c3nc(C(=O)NCC4(C)CCOC4)c(N)nc3-c3ncco3)cn12` (single isomer, unassigned; isomer 2) [Example 252, 3-amino-6-(3-methylimidazo[1,2-a]pyridin-6-yl)-N-((3-methyltetrahydrofuran-3-yl)methyl)-5-(oxazol-2-yl)pyrazine-2-carboxamide (isomer 2)], the half-maximal inhibitory concentration (IC50) stood at 260 nM in experiment [1], 2.9 nM in experiment [2], 821 nM in experiment [3] and 30 nM in experiment [4].

For `Cc1cc(-c2nc(C(=O)NCc3c(F)cccc3OC(F)F)c(N)nc2-c2ccc(F)cc2)cc(C)n1` [Example 85, 3-amino-N-(2-(difluoromethoxy)-6-fluorobenzyl)-6-(2,6-dimethylpyridin-4-yl)-5-(4-fluorophenyl)pyrazine-2-carboxamide], the IC50 in experiment [1] came to 299 nM; in experiment [2], 2.5 nM; in experiment [3], 418 nM; in experiment [4], 36 nM.

Turning to `COc1ccccc1CNC(=O)c1nc(-c2cc(C)nc(C)c2)c(-n2ccc(C)n2)nc1N` [Example 75, 3-amino-6-(2,6-dimethylpyridin-4-yl)-N-(2-methoxybenzyl)-5-(3-methyl-1H-pyrazol-1-yl)pyrazine-2-carboxamide], the IC50 in experiment [1] is 44 nM; in experiment [2] it was 6.1 nM; in experiment [3], at least 10000 nM; in experiment [4] it was 157 nM.

Consider `Cc1cnc2ccc(-c3nc(C(=O)NCCC(=O)N4CCCCC4)c(N)nc3-c3ncco3)cn12` [Example 215, 3-amino-6-(3-methylimidazo[1,2-a]pyridin-6-yl)-5-(oxazol-2-yl)-N-(3-oxo-3-(piperidin-1-yl)propyl)pyrazine-2-carboxamide], for which the IC50 in experiment [1] was 891 nM; in experiment [2], 12 nM; in experiment [3], 568 nM; in experiment [4] it was 9.6 nM.

For the molecule `Cc1cnc2ccc(-c3nc(C(=O)NCCN(C)c4ccccn4)c(N)nc3-c3ncco3)cn12` [Example 240, 3-amino-N-(2-(methyl(pyridin-2-yl)amino)ethyl)-6-(3-methylimidazo[1,2-a]pyridin-6-yl)-5-(oxazol-2-yl)pyrazine-2-carboxamide], the IC50 in experiment [1] turned out to be 108 nM; in experiment [2] it was 18 nM; in experiment [3], 521 nM; in experiment [4] it was 65 nM.

In the case of `Cc1cnc2ccc(-c3nc(C(=O)NC[C@H]4CC(F)(F)CN4C)c(N)nc3-c3ncco3)cn12` [Example 162, (R)-3-amino-N-((4,4-difluoro-1-methylpyrrolidin-2-yl)methyl)-6-(3-methylimidazo[1,2-a]pyridin-6-yl)-5-(oxazol-2-yl)pyrazine-2-carboxamide], the IC50 was found to be 794 nM in experiment [1], 0.71 nM in experiment [2], 147 nM in experiment [3] and 8.12 nM in experiment [4].

As to `Cn1cc(-c2nc(C(=O)NCc3ccccc3F)c(N)nc2-c2ncco2)ccc1=O` [Example 109, 3-amino-N-(2-fluorobenzyl)-6-(1-methyl-6-oxo-1,6-dihydropyridin-3-yl)-5-(oxazol-2-yl)pyrazine-2-carboxamide], the half-inhibitory concentration (IC50) was 486 nM in experiment [1], 13 nM in experiment [2], 240 nM in experiment [3] and 20 nM in experiment [4].

Regarding `CO[C@H]1C[C@@H](NC(=O)c2nc(-c3ccc4ncc(C)n4c3)c(-c3ncco3)nc2N)C1` [Example 152, 3-amino-N-((1s,3s)-3-methoxycyclobutyl)-6-(3-methylimidazo [1,2-a]pyridin-6-yl)-5-(oxazol-2-yl)pyrazine-2-carboxamide], the IC50 stood at 10000 nM in experiment [1], 5.1 nM in experiment [2], 369 nM in experiment [3] and 43 nM in experiment [4].

With `Nc1nc(-c2ccc(F)cc2)c(-c2ccc(=O)n(C3CC3)c2)nc1C(=O)NCc1c(F)cccc1F` [Example 87, 3-amino-6-(1-cyclopropyl-6-oxo-1,6-dihydropyridin-3-yl)-N-(2,6-difluorobenzyl)-5-(4-fluorophenyl)pyrazine-2-carboxamide], the IC50 in experiment [1] turned out to be 31 nM; in experiment [2], 10 nM; in experiment [3], 153 nM; in experiment [4], 22 nM.

As for `Cc1cnc2ccc(-c3nc(C(=O)NCC4CCCCO4)c(N)nc3-c3ncco3)cn12` (single isomer, unassigned; isomer 2) [Example 166, 3-amino-6-(3-methylimidazo[1,2-a]pyridin-6-yl)-5-(oxazol-2-yl)-N-((tetrahydro-2H-pyran-2-yl)methyl) pyrazine-2-carboxamide (isomer 2)], the half-inhibitory concentration (IC50) in experiment [1] was 358 nM; in experiment [2], 0.24 nM; in experiment [3], 47 nM; in experiment [4], 1.48 nM.

Consider `Nc1ccnc(CNC(=O)c2nc(-c3ccc4nccn4c3)c(-c3ncco3)nc2N)n1` [Example 95, 3-amino-N-[(4-aminopyrimidin-2-yl)methyl]-6-[imidazo[1,2-a]pyridin-6-yl]-5-(1,3-oxazol-2-yl)pyrazine-2-carboxamide], for which the IC50 in experiment [1] was 10000 nM; in experiment [2] it was 69 nM; in experiment [3], 78 nM; in experiment [4], 667 nM.

Regarding `Cc1cnc2ccc(-c3nc(C(=O)NCC4CC(=O)N(C)C4)c(N)nc3-c3ncco3)cn12` (single isomer, unassigned; isomer 1) [Example 213, 3-amino-N-((1-methyl-5-oxopyrrolidin-3-yl)methyl)-6-(3-methylimidazo[1,2-ajpyridin-6-yl)-5-(oxazol-2-yl)pyrazine-2-carboxamide (isomer 1)], the half-inhibitory concentration (IC50) is 505 nM in experiment [1], 22 nM in experiment [2], 2530 nM in experiment [3] and 54 nM in experiment [4].

Consider `Cc1cc(-c2nc(C(=O)NCc3ccccc3C)c(N)nc2-c2ccc(F)cc2)cc(C)n1` [Example 81, 3-amino-6-(2,6-dimethylpyridin-4-yl)-5-(4-fIuorophenyl)-N-(2-methylbenzyl) pyrazine-2-carboxamide], for which the IC50 in experiment [1] was 4750 nM; in experiment [2], 98 nM; in experiment [3] it was at least 10000 nM; in experiment [4], 301 nM.

In the case of `Cc1cnc2ccc(-c3nc(C(=O)NCCC#N)c(N)nc3-c3ncco3)cn12` [Example 142, 3-amino-N-(2-cyanoethyl)-6-(3-methyl-imidazo[1,2-a]pyridin-6-yl)-5-(oxazol-2-yl)pyrazine-2-carboxamide], the IC50 was 10000 nM in experiment [1], 10 nM in experiment [2], 319 nM in experiment [3] and 73 nM in experiment [4].

Take `Cc1cnc2ccc(-c3nc(C(=O)NC[C@H](C)O)c(N)nc3-c3ncco3)cn12` [Example 146, (S)-3-amino-N-(2-hydroxypropyl)-6-(3-methylimidazo[1,2-a]pyridin-6-yl)-5-(oxazol-2-yl)pyrazine-2-carboxamide]: the 50% inhibitory concentration (IC50) in experiment [1] was 10000 nM; in experiment [2], 8.5 nM; in experiment [3], 256 nM; in experiment [4], 101 nM.

Take `Cc1cnc2ccc(-c3nc(C(=O)NC[C@H]4CCN(C(=O)C5CC5)C4)c(N)nc3-c3ncco3)cn12` [Cmpd. 219, 3-amino-N-[[(3R)-1-cyclopropanecarbonylpyrrolidin-3-yl]methyl]-6-[3-methylimidazo[1,2-a]pyridin-6-yl]-5-(1,3-oxazol-2-yl)pyrazine-2-carboxamide]: the half-inhibitory concentration (IC50) in experiment [1] was over 10000 nM; in experiment [2] it was 4.9 nM; in experiment [3], 2300 nM; in experiment [4] it was 220 nM.

As a reminder, the IC50 is the concentration at which inhibition is half-maximal.
